In patent US8952024B2, “Herbicidal pyrimidone derivatives” (E I du Pont de Nemours and Company, priority 2009, dated 2015):

What was measured:
Format in all cases: in vivo
[1] = tested on: corn (Zea mays); test: Test A pre-/postemergence plant response
Method in brief: (§1)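 Each species was treated preemergence via directed soil spray and postemergence at the one- to two-leaf stage, with compounds formulated in a non-phytotoxic solvent plus surfactant. Visual injury relative to untreated controls was rated after about ten days on a 0–100 scale.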

[2] = tested on: giant foxtail (Setaria faberii); test: Test A pre-/postemergence plant response
Method in brief: as §1

[3] = tested on: large crabgrass (Digitaria sanguinalis); test: Test A pre-/postemergence plant response
Method in brief: as §1

[4] = tested on: morningglory (Ipomoea spp.); test: Test A pre-/postemergence plant response
Method in brief: as §1

[5] = tested on: velvetleaf (Abutilon theophrasti); test: Test A pre-/postemergence plant response
Method in brief: as §1

[6] = tested on: wheat (Triticum aestivum); test: Test A pre-/postemergence plant response
Method in brief: as §1

[7] = tested on: canarygrass (Phalaris minor); test: Test B postemergence plant response; conditions: for Plant response rating, Canarygrass: Postemergence
Method in brief: (§2)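 Visual ratings from 0 (no effect) to 100 (complete control), made against controls 13–15 days after treatment, kept in a greenhouse. Compounds were applied postemergence to potted plants at the 1- to 4-leaf stage (2–18 cm).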

[8] = tested on: chickweed (Stellaria media); test: Test B postemergence plant response; conditions: for Plant response rating, Chickweed: Postemergence
Method in brief: as §2

[9] = tested on: windgrass (Apera spica-venti); test: Test B postemergence plant response; conditions: for Plant response rating, Windgrass: Postemergence
Method in brief: as §2

[10] = tested on: winter barley (Hordeum vulgare); test: Test B postemergence plant response; conditions: for Barley plant response rating (0 to 100 scale): postemergence, 0 is no effect, 100 is complete control; for Plant response rating, Barley: Postemergence
Method in brief: as §2

[11] = Postemergence, 125 g ai/ha, 0 to 100 scale where 0 is no effect and 100 is complete control
[12] = Postemergence, 500 g ai/ha, 0 to 100 scale, 0 = no effect, 100 = complete control, approx. ten days
[13] = Preemergence, 125 g ai/ha, 0 to 100 scale, 0 = no effect, 100 = complete control
[14] = Preemergence, 500 g ai/ha, visual injury, 0 to 100 scale (0 no effect, 100 complete control), approx. ten days
[15] = 62 g ai/ha, postemergence, 0 is no effect, 100 is complete control, 13 to 15 days
[16] = 31 g ai/ha, 0 to 100 scale (0 no effect, 100 complete control)
[17] = 125 g ai/ha, scale 0 to 100 (0 no effect, 100 complete control)
[18] = 250 g ai/ha, scale 0 to 100 (0 no effect, 100 complete control), 13 to 15 days
[19] = Postemergence, 500 g ai/ha, visual injury, 0 to 100 scale (0 no effect, 100 complete control), approx. ten days
[20] = Preemergence, 500 g ai/ha, 0 to 100 scale, 0 = no effect, 100 = complete control
[21] = 125 g ai/ha, scale 0 (no effect) to 100 (complete control), 13 to 15 days
[22] = 62 g ai/ha, scale 0 to 100 (0 no effect, 100 complete control)

| SMILES | Plant response rating, Corn [1, 11] | Plant response rating, Corn [1, 13] | Plant response rating, Foxtail, Giant [2, 11] | Plant response rating, Foxtail, Giant [2, 13] | Plant response rating, Crabgrass, Large [3, 11] | Plant response rating, Crabgrass, Large [3, 13] | Plant response rating, Morningglory [4, 11] | Plant response rating, Morningglory [4, 13] | Plant response rating, Velvetleaf [5, 11] | Plant response rating, Velvetleaf [5, 13] | Plant response rating, Wheat [6, 11] | Plant response rating, Wheat [6, 13] | Plant response rating, Canarygrass [7, 16] | Plant response rating, Canarygrass [7, 18] | Plant response rating, Chickweed [8, 16] | Plant response rating, Chickweed [8, 18] | Plant response rating, Windgrass [9, 16] | Plant response rating, Windgrass [9, 18] | Plant response rating, Barley [10, 16] | Plant response rating, Barley [10, 18] | further results |
| --- | --- | --- | --- | --- | --- | --- | --- | --- | --- | --- | --- | --- | --- | --- | --- | --- | --- | --- | --- | --- | --- |
| CCCn1c(-c2cccc(F)c2)ncc(C(=O)C2=C(O)CCCC2=O)c1=O [Compound 127] | 20 | 0 | 70 | 50 | 80 | 90 | 90 | 10 | 100 | 70 | 0 | 0 | 5 | 60 | 65 | 98 | 25 | 70 | 0 | 60 | Plant response rating, Corn [1, 12]: 20; Plant response rating, Corn [1, 14]: 0; Plant response rating, Foxtail, Giant [2, 12]: 80; Plant response rating, Foxtail, Giant [2, 14]: 90; Plant response rating, Crabgrass, Large [3, 12]: 90; Plant response rating, Crabgrass, Large [3, 14]: 100; Plant response rating, Morningglory [4, 12]: 100; Plant response rating, Morningglory [4, 14]: 80; Plant response rating, Velvetleaf [5, 12]: 100; Plant response rating, Velvetleaf [5, 14]: 100; Plant response rating, Wheat [6, 12]: 0; Plant response rating, Wheat [6, 14]: 0; Canarygrass plant response rating (0 to 100 scale) [7, 15]: 10; Plant response rating, Canarygrass [7, 17]: 35; Chickweed plant response rating (0 to 100 scale) [8, 15]: 75; Plant response rating, Chickweed [8, 17]: 98; Windgrass plant response rating (0 to 100 scale) [9, 15]: 50; Plant response rating, Windgrass [9, 17]: 55; Barley plant response rating (0 to 100 scale) ([10]; 62 g ai/ha, 13 to 15 days): 20; Plant response rating, Barley [10, 17]: 35 |
| O=C1CCCC(O)=C1C(=O)c1cnc(C2CC2)n(C2CCCCC2)c1=O [Compound 160] | 20 | 0 | 70 | 20 | 90 | 80 | 100 | 70 | 100 | 60 | 0 | 0 | 5 | 35 | 85 | 100 | 20 | 80 | 5 | 50 | Corn plant response rating [1, 19]: 60; Plant response rating, Corn [1, 20]: 20; Foxtail, Giant plant response rating [2, 19]: 80; Plant response rating, Foxtail, Giant [2, 20]: 70; Crabgrass, Large plant response rating [3, 19]: 90; Plant response rating, Crabgrass, Large [3, 20]: 100; Morningglory plant response rating [4, 19]: 100; Velvetleaf plant response rating [5, 19]: 100; Plant response rating, Velvetleaf [5, 20]: 30; Wheat plant response rating [6, 19]: 50; Plant response rating, Wheat [6, 20]: 20; Plant response rating, Canarygrass [7, 17]: 20; Plant response rating, Chickweed [8, 17]: 95; Plant response rating, Windgrass [9, 17]: 60; Barley plant response rating (0 to 100 scale) ([10]; 62 g ai/ha, 13 to 15 days): 30; Plant response rating, Barley [10, 17]: 35 |
| CCCCn1c(-c2ccccc2)ncc(C(=O)C2=C(O)C3CCC(C3)C2=O)c1=O (centres unmarked) [Compound 240] | 40 | 0 | 90 | 40 | 90 | 50 | 100 | 0 | 100 | 60 | 20 | 0 | 5 | 40 | 90 | 100 | 60 | 98 | 5 | 15 | Corn plant response rating [1, 19]: 80; Plant response rating, Corn [1, 20]: 40; Foxtail, Giant plant response rating [2, 19]: 100; Plant response rating, Foxtail, Giant [2, 20]: 80; Crabgrass, Large plant response rating [3, 19]: 100; Plant response rating, Crabgrass, Large [3, 20]: 100; Morningglory plant response rating [4, 19]: 100; Plant response rating, Morningglory [4, 20]: 0; Velvetleaf plant response rating [5, 19]: 100; Plant response rating, Velvetleaf [5, 20]: 80; Wheat plant response rating [6, 19]: 40; Plant response rating, Wheat [6, 20]: 40; Plant response rating, Canarygrass [7, 21]: 30; Plant response rating, Canarygrass [7, 22]: 5; Plant response rating, Chickweed [8, 21]: 100; Plant response rating, Chickweed [8, 22]: 98; Plant response rating, Windgrass [9, 21]: 98; Plant response rating, Windgrass [9, 22]: 80; Plant response rating, Barley [10, 21]: 15; Plant response rating, Barley [10, 22]: 5 |
